Assay results from ChEMBL document CHEMBL3112491, “3-(5-)-Amino-o-diarylisoxazoles: regioselective synthesis and antitubulin activity” (2014).
Activity calls are given as the source filed them. The calls are words filed in the database; no cut-off is given here.

Tests used:
Paracentrotus lividus [1] = assay: Microtubule destabilizing activity in sea urchin free-swimming blastula assessed as embryo spinning up to 4 uM treated at 9 to 10 hrs post-fertilization measured after 0.15 to 15 hrs; type: functional, organism-based
Paracentrotus lividus [2] = assay: Microtubule destabilizing activity in sea urchin free-swimming blastula assessed as embryo spinning treated at 9 to 10 hrs post-fertilization measured after 0.15 to 15 hrs; type: functional
Paracentrotus lividus [3] = assay: Antimitotic activity in sea urchin fertilized egg assessed as cleavage arrest treated at 8 to 20 mins post-fertilization measured at 2.5 to 5.5 hrs post-fertilization; type: functional
Paracentrotus lividus [4] = assay: Antimitotic activity in sea urchin fertilized egg assessed as cleavage alteration treated at 8 to 20 mins post-fertilization measured at 2.5 to 5.5 hrs post-fertilization; type: functional
[5] = Growth inhibition of human OVCAR5 cells after 48 hrs by sulforhodamine B assay; type: functional; details: OVCAR-5, 48 h
SK-MEL-28 = assay: Growth inhibition of human SK-MEL-28 cells after 48 hrs by sulforhodamine B assay; type: functional; details: SK-MEL-28, 48 h
NCI-H460 = assay: Growth inhibition of human NCI-H460 cells after 48 hrs by sulforhodamine B assay; type: functional; details: NCI-H460, 48 h
IGROV-1 = assay: Growth inhibition of human IGROV1 cells after 48 hrs by sulforhodamine B assay; type: functional; details: IGROV-1, 48 h
CCRF-CEM = assay: Growth inhibition of human CCRF-CEM cells after 48 hrs by sulforhodamine B assay; type: functional
MOLT-4 = assay: Growth inhibition of human MOLT4 cells after 48 hrs by sulforhodamine B assay; type: functional; details: MOLT-4, 48 h
TK-10 = assay: Growth inhibition of human TK10 cells after 48 hrs by sulforhodamine B assay; type: functional; details: TK-10, 48 h
COLO 205 = assay: Growth inhibition of human COLO205 cells after 48 hrs by sulforhodamine B assay; type: functional; details: COLO 205, 48 h
HT-29 = assay: Growth inhibition of human HT-29 cells after 48 hrs by sulforhodamine B assay; type: functional; details: HT-29, 48 h
U-251 = assay: Growth inhibition of human U251 cells after 48 hrs by sulforhodamine B assay; type: functional; details: U-251, 48 h
HOP-62 = assay: Growth inhibition of human HOP62 cells after 48 hrs by sulforhodamine B assay; type: functional; details: HOP-62, 48 h
HCT-15 = assay: Growth inhibition of human HCT15 cells after 48 hrs by sulforhodamine B assay; type: functional; details: HCT-15, 48 h
SK-OV-3 = assay: Growth inhibition of human SKOV3 cells after 48 hrs by sulforhodamine B assay; type: functional; details: SK-OV-3, 48 h
SW-620 = assay: Growth inhibition of human SW620 cells after 48 hrs by sulforhodamine B assay; type: functional; details: SW-620, 48 h
[6] = Growth inhibition of human HOP92 cells after 48 hrs by sulforhodamine B assay; type: functional; details: HOP-92, 48 h
[7] = Growth inhibition of human NCI-ADR-RES cells after 48 hrs by sulforhodamine B assay; type: functional
OVCAR-3 = assay: Growth inhibition of human OVCAR3 cells after 48 hrs by sulforhodamine B assay; type: functional; details: OVCAR-3, 48 h
KM12 = assay: Growth inhibition of human KM12 cells after 48 hrs by sulforhodamine B assay; type: functional; details: KM12, 48 h
RPMI-8226 = assay: Growth inhibition of human RPMI8226 cells after 48 hrs by sulforhodamine B assay; type: functional; details: RPMI-8226, 48 h
HL-60(TB) = assay: Growth inhibition of human HL-60(TB) cells after 48 hrs by sulforhodamine B assay; type: functional; details: HL-60, 48 h
SK-MEL-2 = assay: Growth inhibition of human SK-MEL-2 cells after 48 hrs by sulforhodamine B assay; type: functional; details: SK-MEL-2, 48 h
NCI-H322M = assay: Growth inhibition of human NCI-H322M cells after 48 hrs by sulforhodamine B assay; type: functional
[8] = Growth inhibition of human EKVX cells after 48 hrs by sulforhodamine B assay; type: functional
SF-268 = assay: Growth inhibition of human SF268 cells after 48 hrs by sulforhodamine B assay; type: functional; details: SF-268, 48 h
SR = assay: Growth inhibition of human SR cells after 48 hrs by sulforhodamine B assay; type: functional
A498 = assay: Growth inhibition of human A498 cells after 48 hrs by sulforhodamine B assay; type: functional; details: A498, 48 h
[9] = Growth inhibition of human HCC2998 cells after 48 hrs by sulforhodamine B assay; type: functional; details: HCC 2998, 48 h
HCT-116 = assay: Growth inhibition of human HCT116 cells after 48 hrs by sulforhodamine B assay; type: functional; details: HCT-116, 48 h
SF-295 = assay: Growth inhibition of human SF295 cells after 48 hrs by sulforhodamine B assay; type: functional; details: SF-295, 48 h
NCI-H226 = assay: Growth inhibition of human NCI-H226 cells after 48 hrs by sulforhodamine B assay; type: functional; details: NCI-H226, 48 h
786-0 = assay: Growth inhibition of human 786-0 cells after 48 hrs by sulforhodamine B assay; type: functional; details: 786-0, 48 h
NCI-H522 = assay: Growth inhibition of human NCI-H522 cells after 48 hrs by sulforhodamine B assay; type: functional; details: NCI-H522, 48 h
SNB-19 = assay: Growth inhibition of human SNB19 cells after 48 hrs by sulforhodamine B assay; type: functional; details: SNB-19, 48 h
UACC-62 = assay: Growth inhibition of human UACC62 cells after 48 hrs by sulforhodamine B assay; type: functional; details: UACC-62, 48 h
LOX IMVI = assay: Growth inhibition of human LOXIMVI cells after 48 hrs by sulforhodamine B assay; type: functional
OVCAR-8 = assay: Growth inhibition of human OVCAR8 cells after 48 hrs by sulforhodamine B assay; type: functional; details: OVCAR-8, 48 h
ACHN = assay: Growth inhibition of human ACHN cells after 48 hrs by sulforhodamine B assay; type: functional
[10] = Growth inhibition of human SF539 cells after 48 hrs by sulforhodamine B assay; type: functional; details: SF-539, 48 h
[11] = Growth inhibition of human RXF393 cells after 48 hrs by sulforhodamine B assay; type: functional; details: RXF 393, 48 h
SN12C = assay: Growth inhibition of human SN12C cells after 48 hrs by sulforhodamine B assay; type: functional

With `COc1ccc(Cc2noc(-c3cc(OC)c(OC)c(OC)c3)n2)cc1` as the compound, how does the Activity (Paracentrotus lividus [1]) read?
Its Activity is “inactive”.

For `COc1ccc(-c2nc(CCc3cc(OC)c(OC)c(OC)c3)no2)cc1`, which Activity (Paracentrotus lividus [1]) is on record?
Its Activity is “inactive”.

For `COc1ccc(-c2c(-c3ccccc3)noc2N)cc1OC`, which EC (Paracentrotus lividus [2]) is on record?
The EC was 10 µM.

What about the EC (Paracentrotus lividus [3]) of the same compound?
Its EC is 10 µM.

What about the EC (Paracentrotus lividus [4]) of the same compound?
The EC was 0.5 µM.

With `COc1ccc(-c2noc(N)c2-c2cc3c(c(OC)c2OC)OCO3)cc1` as the compound, how does the EC (Paracentrotus lividus [2]) read?
The EC was over 4 µM.

And the EC (Paracentrotus lividus [3])?
Its EC is over 4 µM.

And the EC (Paracentrotus lividus [4])?
The EC was over 4 µM.

With `COc1ccc(-c2noc(N)c2-c2cc(OC)c(OC)c(OC)c2)cc1` as the compound, how does the EC (Paracentrotus lividus [2]) read?
The EC was 0.1 µM.

And the EC (Paracentrotus lividus [3])?
The EC was 0.01 µM.

And the EC (Paracentrotus lividus [4])?
The EC was 0.002 µM.

With `COc1ccc(Cc2noc(-c3cc(OC)c4c(c3OC)OCO4)n2)cc1` as the compound, how does the Activity (Paracentrotus lividus [1]) read?
Its Activity is “inactive”.

Which results are given for `COc1ccc(-c2onc(NC(C)=O)c2-c2ccc(Cl)cc2)cc1`?
EC (Paracentrotus lividus [2]): >4 µM; EC (Paracentrotus lividus [3]): >4 µM; EC (Paracentrotus lividus [4]): >4 µM

What does the source list for `COc1ccc(/C=C\c2cc(OC)c(OC)c(OC)c2)cc1O` [COMBRETASTATIN A4]?
GI50 [5]: 100 nM; GI50 (SK-MEL-28): 8.07 nM; GI50 (NCI-H460): 3.11 nM; GI50 (IGROV-1): 14.6 nM; GI50 (CCRF-CEM): 2.62 nM; GI50 (MOLT-4): 3.27 nM; GI50 (TK-10): 100 nM; GI50 (COLO 205): 100 nM; GI50 (HT-29): 100 nM; GI50 (U-251): 4.03 nM; GI50 (HOP-62): 2.65 nM; GI50 (HCT-15): 3.66 nM; GI50 (SK-OV-3): 58.9 nM; GI50 (SW-620): 3.04 nM; GI50 [6]: 2.73 nM; GI50 [7]: 1 nM; GI50 (OVCAR-3): 2.1 nM; GI50 (KM12): 4.99 nM; GI50 (RPMI-8226): 3.42 nM; EC (Paracentrotus lividus [2]): 0.05 µM; GI50 (HL-60(TB)): 2.16 nM; GI50 (SK-MEL-2): 4.37 nM; GI50 (NCI-H322M): 7.45 nM; GI50 [8]: 85.7 nM; EC (Paracentrotus lividus [3]): 0.01 µM; GI50 (SF-268): 5.7 nM; GI50 (SR): 2.99 nM; GI50 (A498): 6.11 nM; GI50 [9]: 63.4 nM; GI50 (HCT-116): 3.28 nM; GI50 (SF-295): 3.87 nM; GI50 (NCI-H226): 3.81 nM; GI50 (786-0): 100 nM; EC (Paracentrotus lividus [4]): 0.002 µM; GI50 (NCI-H522): 2.18 nM; GI50 (SNB-19): 3.85 nM; GI50 (UACC-62): 5.51 nM; GI50 (LOX IMVI): 3.25 nM; GI50 (OVCAR-8): 2.99 nM; GI50 (ACHN): 6.14 nM; GI50 [10]: 2.54 nM; GI50 [11]: 2.37 nM; GI50 (SN12C): 5.98 nM

With `COc1ccc(Cc2noc(-c3cc4c(c(OC)c3OC)OCO4)n2)cc1` as the compound, how does the Activity (Paracentrotus lividus [1]) read?
Its Activity is “inactive”.

Which EC (Paracentrotus lividus [2]) does the source give for `COc1ccc(-c2noc(N)c2-c2ccc(Cl)cc2)cc1` here?
Its EC is over 4 µM.

What about the EC (Paracentrotus lividus [3]) of the same compound?
The EC was over 4 µM.

And the EC (Paracentrotus lividus [4])?
Its EC is over 4 µM.

Which EC (Paracentrotus lividus [2]) does the source give for `COc1ccc(-c2c(-c3cc(OC)c4c(c3)OCO4)noc2N(C(C)=O)C(C)=O)cc1` here?
Its EC is 0.5 µM.

What about the EC (Paracentrotus lividus [3]) of the same compound?
Its EC is 0.1 µM.

And the EC (Paracentrotus lividus [4])?
The EC was 0.02 µM.

With `COc1ccc(-c2onc(NC(C)=O)c2-c2ccc(OC)cc2)cc1` as the compound, how does the EC (Paracentrotus lividus [2]) read?
Its EC is over 4 µM.

And the EC (Paracentrotus lividus [3])?
The EC was over 4 µM.

What about the EC (Paracentrotus lividus [4]) of the same compound?
The EC was over 4 µM.

With `COc1ccc(-c2c(-c3cc(OC)c4c(c3OC)OCO4)noc2N)cc1` as the compound, how does the EC (Paracentrotus lividus [2]) read?
The EC was over 5 µM.

And the EC (Paracentrotus lividus [3])?
The EC was over 5 µM.

What about the EC (Paracentrotus lividus [4]) of the same compound?
The EC was 2 µM.

Which EC (Paracentrotus lividus [2]) does the source give for `COc1ccc(-c2c(-c3cc(OC)c(OC)c(OC)c3)noc2N(C(C)=O)C(C)=O)cc1` here?
Its EC is 1 µM.

And the EC (Paracentrotus lividus [3])?
Its EC is 0.2 µM.

What about the EC (Paracentrotus lividus [4]) of the same compound?
The EC was 0.05 µM.

Which EC (Paracentrotus lividus [2]) does the source give for `COc1ccc(-c2c(NC(C)=O)noc2-c2cccc(OC)c2)cc1` here?
Its EC is over 4 µM.

And the EC (Paracentrotus lividus [3])?
The EC was over 4 µM.

And the EC (Paracentrotus lividus [4])?
Its EC is over 4 µM.

Which Activity (Paracentrotus lividus [1]) does the source give for `COc1ccc(CCc2noc(-c3cc(OC)c4c(c3)OCCO4)n2)cc1` here?
The Activity was “inactive”.

Which EC (Paracentrotus lividus [2]) does the source give for `COc1ccc(-c2c(N)noc2-c2cc(OC)c3c(c2)OCCO3)cc1` here?
Its EC is 0.5 µM.

What about the EC (Paracentrotus lividus [3]) of the same compound?
The EC was 0.02 µM.

And the EC (Paracentrotus lividus [4])?
Its EC is 0.005 µM.
